Measured values from article PMC12060211, “Development of Efficient Covalent Inactivators of a Fungal Aspartate Semialdehyde Dehydrogenase” (Drug Development Research, 2025).

Molecular target: T1, CalASADH (C. albicans ASADH, aspartate semialdehyde dehydrogenase) (Candida albicans, UniProt Q5ALM0)
T1 construct: gene HOM2; catalytic Cys-156; PDB 3hsk used as docking model of the same protein; ATCC 10231 is only the growth-test strain
T1 sequence (Q5ALM0 1-365): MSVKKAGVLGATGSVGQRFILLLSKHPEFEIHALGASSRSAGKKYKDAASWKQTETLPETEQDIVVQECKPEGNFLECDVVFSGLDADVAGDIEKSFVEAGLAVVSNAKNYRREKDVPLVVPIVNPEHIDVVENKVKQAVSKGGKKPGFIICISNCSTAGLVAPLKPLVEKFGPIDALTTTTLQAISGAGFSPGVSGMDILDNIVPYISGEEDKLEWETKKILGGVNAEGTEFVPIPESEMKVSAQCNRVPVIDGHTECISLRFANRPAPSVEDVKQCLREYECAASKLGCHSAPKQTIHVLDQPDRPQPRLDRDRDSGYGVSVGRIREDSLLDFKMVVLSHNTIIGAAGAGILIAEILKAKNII
Test: time-dependent inactivation, NADPH formation at […] nm, kobs = kinact[I]/(Ki+[I])
Assay type: biochemical
Conditions: covalent; irreversible inactivation; residual activity read at pH 8.6 with 0.3 mM L-aspartate-beta-semialdehyde, 20 mM phosphate, 1.5 mM NADP

SMILES | KI (inactivation)
NC(=O)/C=C/c1ccncc1 [compound 25, acrylamide, R1 amino, R2 4-pyridinyl] | 3790 ± 1600 nM
CC(C)S(=O)(=O)/C=C/C[C@H](N)C(=O)O [compound 17, vinyl sulfone, R1 isopropyl, R2 alanyl] | 760 ± 150 nM
CS(=O)(=O)CC(=O)c1cccnc1 [compound 21, sulfonyl ketone, R1 methyl, R2 3-pyridinyl] | 25900 ± 6600 nM
NC(=O)/C=C/S(=O)(=O)c1ccccc1 [compound 13, sulfonyl acrylamide, R1 phenyl, R2 amide] | 2300 ± 320 nM
CS(=O)(=O)/C=C/c1ccc2ccccc2n1 [compound 7, vinyl sulfone, R1 methyl, R2 2-quinoline] | 960 ± 240 nM
N[C@@H](C/C=C/S(=O)(=O)Cc1ccccc1)C(=O)O [compound 16, vinyl sulfone, R1 benzyl, R2 alanyl] | 1800 ± 820 nM
CS(=O)(=O)/C=C/c1ccc(O)cn1 [compound 4, vinyl sulfone, R1 methyl, R2 5-hydroxy-2-pyridine] | 610 ± 91 nM
CN(C)S(=O)(=O)/C=C/C[C@H](N)C(=O)O [compound 15, vinyl sulfonamide, R1 dimethylamino, R2 alanyl] | 27900 ± 4300 nM
CS(=O)(=O)/C=C/c1cccc2cnccc12 [compound 8, vinyl sulfone, R1 methyl, R2 5-isoquinoline] | 650 ± 110 nM
CS(=O)(=O)/C=C/c1ccc([N+](=O)[O-])s1 [compound 5, vinyl sulfone, R1 methyl, R2 5-nitrothiophene] | 2100 ± 600 nM
N[C@@H](C/C=C/S(=O)(=O)C1CC1)C(=O)O [compound 18, vinyl sulfone, R1 cyclopropyl, R2 alanyl] | 390 ± 93 nM
CS(=O)(=O)CC(=O)c1ccccc1 [compound 23, sulfonyl ketone, R1 methyl, R2 phenyl] | 2200 ± 770 nM
CS(=O)(=O)/C=C/c1ccc(C(N)=O)cc1 [compound 3, vinyl sulfone, R1 methyl, R2 benzamide] | 531000 ± 134000 nM
CS(=O)(=O)/C=C/C(N)=O [compound 12, sulfonyl acrylamide, R1 methyl, R2 amide] | 2700 ± 620 nM
CS(=O)(=O)/C=C/c1ccc(O)cc1 [compound 1, vinyl sulfone, R1 methyl, R2 1,4-phenol] | 538000 ± 300000 nM
CC(=O)CS(C)(=O)=O [compound 19, sulfonyl ketone, R1 methyl, R2 methyl] | 31700 ± 4900 nM
O=C(/C=C/c1ccncc1)N1CCOCC1 [compound 24, acrylamide, R1 morpholino, R2 4-pyridinyl] | 4410 ± 850 nM
O=S(=O)(/C=C/c1ccncc1)N1CCOCC1 [compound 11, vinyl sulfonamide, R1 2-morpholino, R2 4-pyridinyl] | 1170 ± 130 nM
CS(=O)(=O)/C=C/C[C@H](N)C(=O)O [compound 14, vinyl sulfone, R1 methyl, R2 alanyl] | 7600 ± 1200 nM
CS(=O)(=O)CC(=O)c1ccncc1 [compound 20, sulfonyl ketone, R1 methyl, R2 4-pyridinyl] | 59000 ± 22000 nM
CS(=O)(=O)/C=C/c1ccnc2ccccc12 [compound 6, vinyl sulfone, R1 methyl, R2 4-quinoline] | 4400 ± 890 nM
O=S(=O)(/C=C/c1cccc2cnccc12)C1CC1 [compound 9, vinyl sulfone, R1 cyclopropyl, R2 5-isoquinoline] | 2480 ± 410 nM
O=S(=O)(/C=C/c1ccncc1)c1ccccn1 [compound 10, vinyl sulfone, R1 2-pyridinyl, R2 4-pyridinyl] | 2200 ± 180 nM
CS(=O)(=O)CC(=O)c1ccccn1 [compound 22, sulfonyl ketone, R1 methyl, R2 2-pyridinyl] | 6080 ± 760 nM
CC(=O)Nc1ccc(/C=C/S(C)(=O)=O)cc1 [compound 2, vinyl sulfone, R1 methyl, R2 acetanilide] | 203000 ± 83000 nM
